Measurements: PMC7248897, “Synthesis, Biological Evaluation and In Silico Studies of Certain Oxindole–Indole Conjugates as Anticancer CDK Inhibitors” (Molecules, 2020)

Columns and labels:
CDK9 = CDK9 (Homo sapiens, UniProt P50750); experiment: CDK9 kinase inhibition (Reaction Biology HotSpot); conditions: read-out: % Enzyme Inhibitory Activity CDK9
Description: The in vitro CDK kinase inhibition assay was performed by Reaction Biology Corp. (PA, USA) (http://www.reactionbiology.com) Kinase HotSpotSM service.
Reaction Biology Corp. Kinase HotSpotSM service (http://www.reactionbiology.com)
was used for screening of tested compounds. CDK Kinase inhibitory activities were
assessed by the HotSpot assay platform, which contained specific kinase/substrate pairs
along with required cofactors. Base reaction buffer: 20 mM Hepes (pH 7.5), 10 mM MgCl2,
Testing compounds were dissolved in 100% DMSO to specific concentration. The serial
dilution was conducted by Integra Viaflo Assist in DMSO. The reaction mixture containing the examined compound and 33P-ATP was incubated at room temperature for
2 h and radioactivity was detected by filter-binding method. Kinase activity data were
expressed as the percent remaining kinase activity in test samples compared to vehicle
(dimethyl sulfoxide) reactions.

[1] = tested on: MDA-MB-231 breast cancer cell line; experiment: SRB anti-proliferative assay, MDA-MB-231; type: cell-based, human; conditions: for IC50: Homo sapiens, MDA-MB-231, SRB assay, 48 h, mean ± S.D. from 3 separate experiments, read-out: IC50 MDA-MB-231
Description: Cytotoxicity was assessed following the SRB colorimetric assay protocol, as reported earlier.
1. Anti-proliferative action toward human breast cell lines […]
(§1) have been obtained from American Type Culture Collection (ATCC). The cells were maintained in Dulbecco's modified Eagle's medium (DMEM) supplemented with 10% heat inactivated fetal calf serum (GIBCO), penicillin (100 U/ml) and streptomycin (100 µg/ml) at 37 °C in humidified atmosphere containing 5% CO2. Cells at a concentration of […]
The anti-proliferative activity of the tested hybrids 6a-i, 9a-f and 11a, b was measured in vitro using the Sulfo-Rhodamine-B stain (SRB) assay. Briefly, Cells were inoculated in 96-well microtiter plate (5X104 cells/ well) for 24 h before treatment with the tested compounds to allow attachment of cell to the wall of the plate. Tested compounds were dissolved in DMSO at 1 mg/ml immediately before use and diluted to the appropriate volume just before addition to the cell culture. Different concentrations of tested compounds, doxorubicin and sorafenib were added to the cells (three wells were prepared for each individual dose). Cells were incubated with the compounds for 48 h at 37°C and in atmosphere of 5% CO2. After 48 h cells were fixed, washed, and stained for 30 min with 0.4% (w/v) SRB dissolved in 1% acetic acid. Unbound dye was removed by four washes with 1% acetic acid, and attached stain was recovered with Tris-EDTA buffer.
Color intensity was measured in an ELISA reader. […]

Bax = experiment: ELISA of Bax level in MCF-7 cells; type: cell-based, human; conditions: for fold increase of Bax level: MCF-7, vs control; for Bax: MCF-7 cells treated at IC50, 48 h, control 38.3 ± 2.2
Description: Homogeneously, both conjugates were able to decrease the level of the anti-apoptotic Bcl-2 protein by 2.12-, and 1.7-fold, respectively (Table 3). As a more analytical variable, the Bax/Bcl-2 ratio was verified to be amplified by conjugates 6e and 6f, 18- and 12-fold, respectively.
Assessment of the levels for the proapoptotic markers (Bax, caspase-3, and p53) as well as the antiapoptotic marker (Bcl-2) was carried out through the use of ELISA colorimetric kits in accordance with the manufacturer’s instructions, as mentioned earlier. In addition, the pro-apoptotic potential of indoles 6e and 6f towards MCF-7 cells was evaluated through an FITC Annexin V apoptosis detection kit by flow cytometry, in accordance with the manufacturer’s protocol and referring to the reported procedures.
The levels of the pro-apoptotic markers (Bax, caspase-3 and p53) as well as the anti-apoptotic marker Bcl-2 were determined using ELISA colorimetric kits per the manufacturer’s instructions. Breast cancer MCF-7 cells were cultured as a monolayer in T-25 flasks and were seeded to attain 30% confluency prior to treatment. Cells were then […]
of treatment, cells were collected via trypsinization and centrifuged at 10,000 rpm. The pellet was then rinsed with PBS and lysed in RIPA lysis buffer at 4 °C for 45 min, then centrifuged at 14,000 rpm for 20 min to remove the cellular debris. Lysates were then collected and stored at −80 °C for later protein determination using Pierce BCA Protein Assay Kit according to manufacturer’s recommendations.
The cell lysate was diluted 10 times, and 100 μL ([…]) was added to the wells of four separate microtiter plates for the four ELISA kits that were pre-coated with primary antibodies specific to Bax, Bcl-2, caspase-3 and p53 proteins, respectively. A secondary biotin-linked antibody specific to the protein captured by the primary antibody was further added to bind the captured protein, forming a “sandwich” of specific antibodies around the desired protein in the cell lysate. The streptavidin-HRP complex was then used to bind the biotin-linked secondary antibody through its streptavidin portion. The HRP domain reacted with the added TMB substrate to form a colored product that measured at 450 nm by a plate reader ChroMate-4300 after the reaction was terminated via the addition of stop solution. […]
Cells were then rinsed in binding buffer and resuspended in 150
μL of binding buffer with the addition of 1 μL of DAPI (1 μg/μL in PBS). […]

MCF-7 cells = experiment: Cell cycle analysis by flow cytometry (PI); type: cell-based, human; conditions: for fold elevation in sub-G1 phase / fold increase of cells in G2/M phase: MCF-7, in comparison to the control (DMSO); for %Sub-G1 / %G2/M / %S / %G0–G1: MCF-7 cells treated at IC50, 24 h; for %Sub-G1: control 1.37; for %G2/M: control 14.73; for %S: control 27.45; for %G0–G1: control 56.45
Description: Most of the cytotoxic agents wield their anti-proliferative effect by arresting the cell cycle at some checkpoints. Cell cycle analysis employs flow cytometry to distinguish cells within the different cell cycle phases. […] MCF-7 cells were treated by the IC50 of the two conjugates and their impact on the cell population was recorded. […] This was accompanied by discernible escalation in the proportion of cells in the G2/M phase by 2.80- and 2.46-fold with concomitant elevation in the sub-G1 phase by 17.8 and 16.25-fold, respectively, in comparison to the control (DMSO). […]
as §1, with “The two examined human breast cancer cell lines (MCF-7 and Breast MDA-MB-231) have” for “have”, “of 0.50 x 106 were grown in a 25 cm2 flask in 5 ml of culture medium.” for “of”
Breast cancer MCF-7 cells were treated with hybrids 6e and 6f for 24 h (at their IC50 concentration), and then cells were washed twice with ice-cold phosphate buffered saline (PBS). Subsequently, the treated cells were collected by centrifugation, fixed in ice-cold 70% (v/v) ethanol, washed with PBS, re-suspended with 100 μg/mL RNase, stained with 40 μg/mL PI, and analyzed by flow cytometry using FACS Calibur (Becton Dickinson, BD, Franklin Lakes, NJ, USA). The cell cycle distributions were calculated using CellQuest software 5.1 (Becton Dickinson).

Sequence of CDK9 (P50750 whole entry): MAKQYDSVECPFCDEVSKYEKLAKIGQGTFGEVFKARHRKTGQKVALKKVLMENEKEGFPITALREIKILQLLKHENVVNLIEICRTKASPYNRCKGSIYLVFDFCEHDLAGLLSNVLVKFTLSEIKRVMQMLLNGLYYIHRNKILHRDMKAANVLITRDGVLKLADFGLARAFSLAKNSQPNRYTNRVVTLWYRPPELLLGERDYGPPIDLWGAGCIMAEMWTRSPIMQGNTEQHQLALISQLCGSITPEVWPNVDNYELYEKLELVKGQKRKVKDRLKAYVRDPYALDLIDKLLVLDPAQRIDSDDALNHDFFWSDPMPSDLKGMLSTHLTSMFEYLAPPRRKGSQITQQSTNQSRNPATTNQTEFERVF
Sequence of CDK9 (O60563 whole entry partner): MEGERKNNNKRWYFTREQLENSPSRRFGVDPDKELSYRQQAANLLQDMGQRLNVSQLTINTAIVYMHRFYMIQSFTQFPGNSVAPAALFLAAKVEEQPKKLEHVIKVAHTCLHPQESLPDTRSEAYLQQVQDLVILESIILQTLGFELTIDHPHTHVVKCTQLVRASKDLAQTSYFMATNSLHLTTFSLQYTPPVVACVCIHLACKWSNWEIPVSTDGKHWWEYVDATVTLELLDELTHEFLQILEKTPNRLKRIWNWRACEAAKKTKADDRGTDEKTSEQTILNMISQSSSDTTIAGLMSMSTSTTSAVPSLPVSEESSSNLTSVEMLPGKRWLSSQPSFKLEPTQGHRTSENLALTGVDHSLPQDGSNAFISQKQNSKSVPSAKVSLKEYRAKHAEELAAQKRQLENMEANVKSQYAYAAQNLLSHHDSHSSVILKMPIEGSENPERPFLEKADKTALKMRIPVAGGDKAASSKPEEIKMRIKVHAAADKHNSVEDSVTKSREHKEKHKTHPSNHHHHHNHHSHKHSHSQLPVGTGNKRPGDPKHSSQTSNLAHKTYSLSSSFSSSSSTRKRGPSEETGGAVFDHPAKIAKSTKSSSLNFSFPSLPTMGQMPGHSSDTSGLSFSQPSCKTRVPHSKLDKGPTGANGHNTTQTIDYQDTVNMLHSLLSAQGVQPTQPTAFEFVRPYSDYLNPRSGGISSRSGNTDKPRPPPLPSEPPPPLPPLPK

| SMILES | inhibition at 20 µM (CDK9) [%] | IC50 [1] [µM] | fold potency compared to staurosporine ([1]; MDA-MB-231, ratio of IC50 values) [fold] | fold increase of Bax level (Bax) [fold] | Bax (Bax) | fold elevation in sub-G1 phase (MCF-7 cells) [fold] | fold increase of cells in G2/M phase (MCF-7 cells) [fold] | %Sub-G1 (MCF-7 cells) [%] | %G2/M (MCF-7 cells) [%] | %S (MCF-7 cells) [%] | %G0–G1 (MCF-7 cells) [%] |
| --- | --- | --- | --- | --- | --- | --- | --- | --- | --- | --- | --- |
| COc1ccc2c(c1)/C(=N/NC(=O)c1cc3ccccc3[nH]1)C(=O)N2 [6f] | 8 | 2.85 ± 0.9 | 3.6 | 7 | 268.7 ± 9.5 pg/mg of Total Protein | 16.25 | 2.46 | 22.26 | 36.26 | 19.29 | 22.19 |
| Cc1ccc2c(c1)/C(=N/NC(=O)c1cc3ccccc3[nH]1)C(=O)N2 [6e] | 18 | 22.5 ± 1.67 |  | 8.5 | 325.3 ± 12.1 pg/mg of Total Protein | 17.8 | 2.80 | 24.49 | 41.47 | 14.81 | 19.23 |
